Experimental findings from patent publication US10385107B2 (INDIANA UNIVERSITY RESEARCH AND TECHNOLOGY CORPORATION, priority 2014, dated 2019) are described below.

The target in data set [1] is T1, insulin receptor (Homo sapiens, UniProt P06213). The data set can be described thus: Insulin receptor phosphorylation assay, receptor transfected HEK293 cells. It is filed as cell-based. Set-up: expressed in transfected cells; host or cells: HEK293. The note with it: incubated in 20% plasma.
Data set [2] deals with blood glucose. The data set is described as follows: Insulin tolerance test in C57/Blk mice (MIU-30). It is filed as in vivo. The note with it: C57 black mice, through 8 hr. The source says:
(generating “MIU-30c”). […] In FIG. 1B total blood glucose of MIU 30a and MIU 30c as compared to vehicle is reported as differential area under curve (AUC). […] These in vivo results are consistent with the in vitro analysis.

The target of data set [3] is T1, insulin receptor. The data set is described as follows: Insulin receptor competition binding assay (scintillation proximity). Set-up: expressed in transfected cells; plasma membrane fragments. The note with it: incubated in 20% plasma/PBS at 37° C.
The nature of data set [4]: Stability of Phe^B1-Insulin Prodrug.
For data set [5], the system named is blood glucose. The data set is described as follows: Comparative insulin tolerance for insulin prodrug analogs in mice. It is filed as in vivo. To be noted: for comparative insulin potency in vivo: mice, administered without pre-incubation. The source says:
The prodrug derivative MIU-29: [B^1(Y16,L17,Y25)29a: A^1(aF19-dLys(Ac),NLeu)] comprises a 4-amino-phenylalnine substitution at position A19 wherein a dipeptide dLys(Ac),NLeu have been covalently linked at the 4-amino position of the A19 residue. […]
(§1) Acylation of the insulin prodrug analogs was investigated to determine if retention times in vivo could be enhanced. […] (providing time for prodrug conversion) relative to the non-acylated prodrug (see FIG. 2).

Data set [6] in a line: In vitro activity of prodrugs relative to time incubated ex vivo. To be noted: 30% ACN/PBS, pH 7.4, 37° C. On the procedure:
FIG. 2 is a graph depicting the in vitro activity of the acylated prodrug MIU 42: B^1(Y16,L17,Y25)29a: A^1(dLys(rE-C14),Sar-aF19) (wherein an amino acid of the dipeptide prodrug element is acylated, linked at the gamma position “rE” of a glutamic acid linker) relative to time incubated ex vivo in 30% ACN/PBS at pH 7.4 and 37° C.
as §1

“Also recorded” adds a separate entry of the source. Where only a bound is given, the exact number is not on record here.

T1 sequence (P06213 28-758 limits assumed): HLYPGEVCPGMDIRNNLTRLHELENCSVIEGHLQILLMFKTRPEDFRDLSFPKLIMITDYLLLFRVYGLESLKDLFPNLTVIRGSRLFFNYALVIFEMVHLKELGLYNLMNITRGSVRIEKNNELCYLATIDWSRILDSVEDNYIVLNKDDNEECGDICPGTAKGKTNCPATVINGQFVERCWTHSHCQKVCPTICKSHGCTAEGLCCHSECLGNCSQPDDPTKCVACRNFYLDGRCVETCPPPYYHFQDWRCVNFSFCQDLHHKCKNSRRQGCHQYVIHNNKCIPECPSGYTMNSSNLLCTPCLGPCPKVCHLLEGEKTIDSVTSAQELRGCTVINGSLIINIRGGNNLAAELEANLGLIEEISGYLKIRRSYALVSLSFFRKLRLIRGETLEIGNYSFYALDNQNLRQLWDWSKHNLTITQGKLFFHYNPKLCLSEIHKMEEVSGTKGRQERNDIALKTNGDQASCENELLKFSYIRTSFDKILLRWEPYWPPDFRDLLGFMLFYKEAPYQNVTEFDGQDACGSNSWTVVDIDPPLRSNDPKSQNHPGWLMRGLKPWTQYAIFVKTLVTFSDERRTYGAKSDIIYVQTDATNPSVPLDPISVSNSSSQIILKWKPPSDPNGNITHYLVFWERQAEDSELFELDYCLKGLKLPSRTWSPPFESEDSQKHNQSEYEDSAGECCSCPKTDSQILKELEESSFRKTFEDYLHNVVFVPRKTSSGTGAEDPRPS
T1 sequence (P06213 763-1382 partner limits assumed): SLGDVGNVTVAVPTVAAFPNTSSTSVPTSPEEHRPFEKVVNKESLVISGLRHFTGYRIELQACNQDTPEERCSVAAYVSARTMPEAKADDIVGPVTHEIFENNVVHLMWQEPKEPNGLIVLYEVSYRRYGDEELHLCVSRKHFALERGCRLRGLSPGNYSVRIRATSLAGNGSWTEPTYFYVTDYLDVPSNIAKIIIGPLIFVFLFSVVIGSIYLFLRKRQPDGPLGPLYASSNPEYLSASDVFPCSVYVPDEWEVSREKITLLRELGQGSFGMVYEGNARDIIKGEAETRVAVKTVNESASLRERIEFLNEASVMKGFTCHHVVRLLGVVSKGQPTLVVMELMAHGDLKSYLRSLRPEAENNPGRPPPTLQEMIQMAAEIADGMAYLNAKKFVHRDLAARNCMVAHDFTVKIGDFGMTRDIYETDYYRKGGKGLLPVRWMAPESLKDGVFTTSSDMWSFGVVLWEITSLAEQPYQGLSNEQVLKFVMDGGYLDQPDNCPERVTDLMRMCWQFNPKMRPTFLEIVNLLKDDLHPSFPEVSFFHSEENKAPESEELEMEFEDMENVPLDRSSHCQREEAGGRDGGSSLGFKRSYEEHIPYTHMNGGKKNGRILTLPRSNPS

With “B^1(Y16,L17,Y25)29a: A^1(dLys(Ac),Sar-aF19) [MIU30]”, the “% Activity of Insulin (phosphorylation)” value on insulin receptor [1] (1 hr) is 23.0%; on insulin receptor [1] (3 hr), 26.8%; on insulin receptor [1] (6 hr), 32.5%; on insulin receptor [1] (9 hr) it was 41.1%; at insulin receptor [1] ([…]), 43.2%. The “blood glucose AUC vs vehicle (glucose lowering)” value is recorded as “little change in glucose” with blood glucose [2] (90 nmol/kg) and “glucose lowering” in the data set on blood glucose [2] (270 nmol/kg). Besides, the “% Activity of Insulin (binding)” value was determined as 34.44% on insulin receptor [3] (0 hr), 100.09% at insulin receptor [3] (9 hr) and 115.42% at insulin receptor [3] (95 hr).
Turning to Methyl dLys(C18) [Peptide 8], the Cleavage time in data set [4] was more than 240 h.
Turning to “[B^1(H5,10 Y16,L17,Y25, K29-C14)28a: A^1(N18,21, aF19NH2)] [MIU-46]”, the “comparative insulin potency in vivo” value in the data set on blood glucose [5] is “did not exhibit a desired in vivo potency or a basal profile”.
Consider “[B^1(Y16,L17,Y25)29a: A^1(aF19-dLys(Ac),NLeu)] [MIU-29]”, for which the “ability to lower blood glucose compared to parent compound” value with blood glucose [5] (normal mice, prodrug incubated 24 hours ex vivo before administration) is recorded as “performed almost identically”.
As to “[B^1(Y16,L17,Y25)29a: A^1(dLys(rE-C14),Sar-aF19)] [MIU 42]”, the “comparative insulin potency in vivo” value in the data set on blood glucose [5] is given as “not very potent relative to the non-prodrug parent compound”. The “in vitro activity relative to time incubated ex vivo” value in data set [6] is “increases with time incubated ex vivo; also recorded: activity is restored”.
For isobutyl dLys(C18) [Peptide 10], the Cleavage time in data set [4] is approximately 150 h.
